Columns and labels:
[1] = tested on: human gastric cancer cell line MGC-803; assay: MTT antiproliferation assay, MGC-803 cells; type: cell-based; conditions: 48 h incubation, mean ± SD of triplicate experiments
Description: (§1) The human gastric cancer cell line MGC-803 and human normal gastric epithelial cell line GES-1 were cultured in DMEM containing penicillin (100 U/mL), streptomycin (100 μg/mL), and 10% FBS at 37 °C with 5% CO2. Cells that used in experiments were passaged at least three times.
(§2) Cells were seeded in 96-well plates at a density of 5 × 10^4/well and cultured at 37 °C with 5% CO2 for 24 h. And then, compounds (1–5) in various concentrations were introduced with incubation for another 48 h. Finally, 10 μL MTT (5 mg/mL) was added to each well. After 4 h incubation, the medium was removed and 150 μL DMSO was added. Absorbance was read on a Microplate Reader at 570 nm (Bio Tek, Thenceforth, USA) (Li et al. [2014]). The MTT assay aims to evaluate the antiproliferative effects of the test compounds in MGC-803 cells and the cytotoxic effects in GES-1 cells.

[2] = tested on: human normal gastric epithelial cell line GES-1; assay: MTT cytotoxicity assay, GES-1 cells; type: cell-based; conditions: GES1, 48 h incubation, mean ± SD of triplicate experiments
Description: as §1, §2

MGC-803 cells = assay: Annexin V-FITC/PI apoptosis assay by flow cytometry; type: cell-based, human; conditions: MGC-803 cells, 1.0, 2.0, 4.0 μM, 24 h, compared with the control group
Description: The apoptosis effect of 2′-Z auraptene A (2) in MGC-803 cells was examined using the Annexin V-FITC/PI detection kit, according to the description of previously reported (Bakar et al. [2016]). Briefly, cells were seeded and treated with compound 2 (0, 1.0, 2.0, 4.0 μM) for 24 h. Cells were harvested and washed twice with cold PBS before incubating with annexin V and PI for 30 min in dark. And then the stained cells were detected and analyzed on FACS Calibur flow cytometry.

[3] = tested on: Bax, Bcl-2 and cleaved caspase-3 in MGC-803 cells; assay: Western blot of apoptosis-related proteins; type: cell-based, human; conditions: MGC-803 cells, 1.0, 2.0, 4.0 μM, 24 h
Description: The detection of levels of apotosis-related proteins in MGC-803 cells was performed according to the reported western blot method (Zhang et al. [2015a]). Briefly, cells were treated with compound 2 (0, 1.0, 2.0, 4.0 μM) for 24 h and then harvested to detect the protein concentration using the BCA method. Total cellular protein was separated by an SDS/PAGE gel and transferred onto PVDF membranes using a semidry electroblotter. The membrane was blocked with non-fat milk solution (5%) for 1 h, and incubated subsequently with primary antibody at 4 °C overnight. Then TBST was used to wash the primary antibody and incubated with secondary antibody for 1 h at room temperature. Protein bands were visualized by enhanced chemiluminescence (ECL) and β-actin was used as a normalizing control.

[4] = Solubility in aqueous media; type: physicochemical; conditions: thermodynamic equilibrating conditions, compared with 2′-Z auraptene

Row | IC50 [1] [µM] | limitation of solubility in aqueous media [4] | SMILES | IC50 [2] [µM] | cellular apoptotic rates (MGC-803 cells) | level of Bax protein [3] | level of Bcl-2 protein [3] | level of cleaved caspase-3 protein [3]
1 | 0.78 ± 0.13 | improved | C/C(=C/COc1ccc2ccc(=O)oc2c1)CCCO [Compound 2, 2′-Z auraptene A] | 46 ± 3.11 | increased significantly in a dose-dependent manner | increase | reduction | increase
2 | 4.75 ± 1.02 | – | C/C(=C/CC/C(C)=C\COc1ccc2ccc(=O)oc2c1)CO [Compound 3, 7-(((2′Z,6′Z)-9′-hydroxy-3′,7′-dimethylocta-2′,6′-dien-1′-yl)oxy)-2H-chromen-2-one] | 25.6 ± 2.12 | – | – | – | –
3 | 6.78 ± 2.06 | – | C/C(=C/CC(O)/C(C)=C\COc1ccc2ccc(=O)oc2c1)CO (stereo not drawn) [Compound 4, 7-(((2′Z,6′Z)-4′,9′-hydroxy-3′,7′-dimethylocta-2′,6′-dien-1′-yl)oxy)-2H-chromen-2-one] | 33.8 ± 1.46 | – | – | – | –
4 | 10.8 ± 1.83 | – | C/C(=C/C(O)C/C(C)=C\COc1ccc2ccc(=O)oc2c1)CO (stereo not drawn) [Compound 5, 7-(((2′Z,6′Z)-5′,9′-hydroxy-3′,7′-dimethylocta-2′,6′-dien-1′-yl)oxy)-2H-chromen-2-one] | 35.5 ± 2.21 | – | – | – | –

Row | SMILES | IC50 [1] [µM] | limitation of solubility in aqueous media [4] | IC50 [2] [µM] | cellular apoptotic rates (MGC-803 cells) | level of Bax protein [3] | level of Bcl-2 protein [3] | level of cleaved caspase-3 protein [3]
5 | CC(C)=CCC/C(C)=C\COc1ccc2ccc(=O)oc2c1 [Compound 1, (Z)-7-((3′,7′-dimethylocta-2′,6′-dien-1′-yl)oxy)-2H-chromen-2-one] | 10.4 ± 0.86 | – | 57 ± 2.31 | – | – | – | –

— publication PMC6028838, “A new terpene coumarin microbial transformed by Mucor polymorphosporus induces apoptosis of human gastric cancer cell line MGC-803” (Archives of Pharmacal Research, 2018)
